Experimental data as given in article PMC3970552 (Neuropharmacology, 2013).
Each block holds one molecule with its values, some of them ahead of it.

Columns and labels:
α3G181Cβ2 nAChR [1] = biological target: T1, α3G181Cβ2 nAChR (Rattus norvegicus, UniProt P04757+P12390, G208C); test: Oxidation/reduction treatment, evoked currents; assay type: cell-based; conditions: ACh + Mor currents
α3L158CK183Cβ2 nAChR [2] = biological target: T2, α3L158CK183Cβ2 nAChR (Rattus norvegicus, UniProt P04757+P12390, K210C/L185C); test: Oxidation/reduction treatment; assay type: cell-based; conditions: for IDTT/Icontrol: DTT treatment; for decrease of ACh-evoked currents: 125 μM ACh challenge
T2 sequence (P04757 26-499 L185C/K210C): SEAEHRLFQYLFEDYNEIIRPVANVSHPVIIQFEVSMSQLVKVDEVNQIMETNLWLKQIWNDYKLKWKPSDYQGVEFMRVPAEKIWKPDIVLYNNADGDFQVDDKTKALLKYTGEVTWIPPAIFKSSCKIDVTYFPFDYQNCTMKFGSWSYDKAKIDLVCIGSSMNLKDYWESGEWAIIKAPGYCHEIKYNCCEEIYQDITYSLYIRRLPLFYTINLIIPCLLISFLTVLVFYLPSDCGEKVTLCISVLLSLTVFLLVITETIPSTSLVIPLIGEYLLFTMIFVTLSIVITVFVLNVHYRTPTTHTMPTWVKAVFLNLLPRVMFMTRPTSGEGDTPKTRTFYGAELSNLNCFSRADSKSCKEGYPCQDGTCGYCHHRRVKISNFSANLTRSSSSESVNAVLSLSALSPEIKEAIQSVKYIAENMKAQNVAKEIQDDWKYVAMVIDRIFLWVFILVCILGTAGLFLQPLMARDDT
T2 sequence (P12390 25-500): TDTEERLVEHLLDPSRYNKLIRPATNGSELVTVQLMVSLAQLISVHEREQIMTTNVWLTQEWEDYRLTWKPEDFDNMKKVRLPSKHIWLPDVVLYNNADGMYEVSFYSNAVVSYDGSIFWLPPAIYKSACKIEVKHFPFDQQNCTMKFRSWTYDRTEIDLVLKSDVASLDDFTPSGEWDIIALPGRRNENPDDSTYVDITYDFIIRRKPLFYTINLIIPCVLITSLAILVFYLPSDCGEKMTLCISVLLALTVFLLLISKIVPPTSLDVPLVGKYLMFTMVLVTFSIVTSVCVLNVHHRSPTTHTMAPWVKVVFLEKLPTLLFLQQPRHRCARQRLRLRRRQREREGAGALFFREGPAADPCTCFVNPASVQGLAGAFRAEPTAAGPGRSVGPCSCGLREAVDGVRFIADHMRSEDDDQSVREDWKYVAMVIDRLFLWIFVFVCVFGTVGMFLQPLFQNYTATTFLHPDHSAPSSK

α3L158CA179Cβ2 nAChR [3] = biological target: T3, α3L158CA179Cβ2 nAChR (Rattus norvegicus, UniProt P04757+P12390, A206C/L185C); test: Oxidation/reduction treatment; assay type: cell-based; conditions: for IDTT/Icontrol: 40 μM DTT; for ITCEP/Icontrol: 40 μM TCEP
T3 sequence (P04757 26-499 L185C/A206C): as the sequence (P04757 26-499 L185C/K210C) above, with A181C, C185K counted along it
T3 sequence (P12390 25-500, stated change not applied): as the sequence (P12390 25-500) above

α3L158CG181Cβ2 nAChR [4] = biological target: T4, α3L158CG181Cβ2 nAChR (Rattus norvegicus, UniProt P04757+P12390, G208C/L185C); test: Oxidation/reduction treatment; assay type: cell-based; conditions: for ACh/Mor-evoked current, % of the control: after H2O2 + ACh + Mor oxidation
T4 sequence (P04757 26-499 L185C/G208C): as the sequence (P04757 26-499 L185C/K210C) above, with G183C, C185K counted along it
T4 sequence (P12390 25-500): as the sequence (P12390 25-500) above

α3L158Cβ2 nAChR [5] = biological target: T5, α3L158Cβ2 nAChR (Rattus norvegicus, UniProt P04757+P12390, L185C); test: Oxidation/reduction treatment, evoked currents; assay type: cell-based; conditions: ACh + Mor currents
T5 sequence (P04757 26-499 L185C): as the sequence (P04757 26-499 L185C/K210C) above, with C185K counted along it
T5 sequence (P12390 25-500): as the sequence (P12390 25-500) above

α3L158CG181Cβ2 nAChR [6] = biological target: T4, α3L158CG181Cβ2 nAChR; test: Two-electrode voltage-clamp concentration-response in Xenopus oocytes; assay type: cell-based
α3L158Cβ2 nAChR [7] = biological target: T5, α3L158Cβ2 nAChR; test: as above; assay type: cell-based
α3G181Cβ2 nAChR [8] = biological target: T1, α3G181Cβ2 nAChR; test: as above; assay type: cell-based
α3K183Cβ2 nAChR = α3K183Cβ2 nAChR (Rattus norvegicus, UniProt P04757+P12390, K210C); test: as above; assay type: cell-based
α3K183Cβ2 nAChR, sequence (P04757 26-499 K210C): as the sequence (P04757 26-499 L185C/K210C) above, with C160L counted along it
α3K183Cβ2 nAChR, sequence (P12390 25-500): as the sequence (P12390 25-500) above

α3A179Cβ2 nAChR = α3A179Cβ2 nAChR (Rattus norvegicus, UniProt P04757+P12390, A179C/A206C); test: as above; assay type: cell-based
α3A179Cβ2 nAChR, sequence (P04757 26-499 A179C/A206C): as the sequence (P04757 26-499 L185C/K210C) above, with A154C, C160L, A181C, C185K counted along it
α3A179Cβ2 nAChR, sequence (P12390 25-500, stated change not applied): as the sequence (P12390 25-500) above

α3L158CA179Cβ2 nAChR [9] = biological target: T3, α3L158CA179Cβ2 nAChR; test: as above; assay type: cell-based; conditions: naïve oocytes
wild type α3β2 nAChR = wild type α3β2 nAChR (Rattus norvegicus, UniProt P04757+P12390); conditions: ref Cesa et al., 2012, cited from earlier work
wild type α3β2 nAChR, sequence (P04757 26-499): as the sequence (P04757 26-499 L185C/K210C) above, with C160L, C185K counted along it
wild type α3β2 nAChR, sequence (P12390 25-500): as the sequence (P12390 25-500) above

α3L158CK183Cβ2 nAChR [10] = biological target: T2, α3L158CK183Cβ2 nAChR; test: Two-electrode voltage-clamp concentration-response in Xenopus oocytes; assay type: cell-based
α3G181Cβ2 nAChR [11] = biological target: T1, α3G181Cβ2 nAChR; test: MTS-dansyl treatment, evoked currents; assay type: cell-based; conditions: 100 μM ACh currents
α3L158Cβ2 nAChR [12] = biological target: T5, α3L158Cβ2 nAChR; test: MTS-dansyl treatment, evoked currents; assay type: cell-based; conditions: 5 μM ACh currents
α3L158CG181Cβ2 nAChR [13] = biological target: T4, α3L158CG181Cβ2 nAChR; test: MTS-dansyl probing of free sulfhydryls, evoked currents; assay type: cell-based
[14] = DTT after treatment with H2O2 only
[15] = ACh titration + 10 μM Mor, naïve oocytes
[16] = Mor alone, relative to internal ACh control
[17] = ACh + 10 μM Mor, asymptote at saturating ACh, normalized to highest ACh alone
[18] = ACh alone, Hill fit, naïve oocytes

T1 sequence (P04757 26-499 G208C): as the sequence (P04757 26-499 L185C/K210C) above, with C160L, G183C, C185K counted along it
T1 sequence (P12390 25-500): as the sequence (P12390 25-500) above

SMILES: O[C@@H](CS)[C@@H](O)CS [DTT]
IDTT/IH2O2 (α3G181Cβ2 nAChR [1]): 0.96 ± 0.06 | IDTT/Icontrol (ACh + Mor) (α3L158CK183Cβ2 nAChR [2]; DTT post-oxidation): 1.02 ± 0.02 | IDTT/Icontrol (ACh) (α3L158CK183Cβ2 nAChR [2]; DTT post-oxidation): 0.97 ± 0.03 | IDTT/Icontrol (α3L158CK183Cβ2 nAChR [2]; 125 μM ACh): 1.10 ± 0.01 | IDTT/Icontrol (α3L158CK183Cβ2 nAChR [2]; 125 μM ACh + 10 μM Mor): 1.19 ± 0.03 | IDTT/Icontrol (α3L158CA179Cβ2 nAChR [3]; 24 μM ACh): 1.30 ± 0.08 | IDTT/Icontrol (α3L158CA179Cβ2 nAChR [3]; 24 μM ACh + 10 μM Mor): 1.26 ± 0.07 | IDTT/Icontrol (ACh + Mor) (α3L158CA179Cβ2 nAChR [3]; [14]): 1.06 ± 0.06 | IDTT/Icontrol (ACh) (α3L158CA179Cβ2 nAChR [3]; [14]): 0.99 ± 0.04 | increase of ACh-evoked current (α3L158CG181Cβ2 nAChR [4]; 40 μM DTT 5 min on naive oocytes, prior to H2O2, challenge 100 μM ACh): 25% | IDTT/IH2O2 (α3L158Cβ2 nAChR [5]): 0.96 ± 0.17

SMILES: Cc1ccsc1C=CC1=NCCCN1C.O=C(O)C(O)C(O)C(=O)O [Mor, 1,4,5,6-tetrahydro-1-methyl-2-(2-[3-methyl-2-thienyl]ethenyl)pyrimidine, tartrate salt]
EC50 (α3L158CG181Cβ2 nAChR [6]): 28 ± 10 µM | Mor Modulation Response nH (α3L158CG181Cβ2 nAChR [6]; [15]): 1.18 ± 0.25 | Emax, activation by Mor alone (α3L158CG181Cβ2 nAChR [6]; [16]): 0.074 ± 0.009 | EC50 (α3L158Cβ2 nAChR [7]): 12 ± 7 µM | Mor Modulation Response Emax (α3L158Cβ2 nAChR [7]; [17]): 1.6 ± 0.1 | Mor Modulation Response nH (α3L158Cβ2 nAChR [7]; ACh titration + 10 μM Mor): 1.47 ± 0.39 | Emax, activation by Mor alone (α3L158Cβ2 nAChR [7]; [16]): 0.021 ± 0.002 | EC50 (α3G181Cβ2 nAChR [8]): 41 ± 26 µM | Mor Modulation Response Emax (α3G181Cβ2 nAChR [8]; [17]): 2.3 ± 0.1 | Mor Modulation Response nH (α3G181Cβ2 nAChR [8]; ACh titration + 10 μM Mor): 1.08 ± 0.12 | Emax, activation by Mor alone (α3G181Cβ2 nAChR [8]; [16]): 0.32 ± 0.05 | Mor potentiation (α3K183Cβ2 nAChR; ACh + 10 μM Mor vs ACh alone): negligible Mor potentiation | Mor Modulation Response Emax (α3K183Cβ2 nAChR; [17]): 0.97 ± 0.02 | Mor Modulation Response nH (α3K183Cβ2 nAChR; ACh titration + 10 μM Mor): 1.61 ± 0.22 | Mor Modulation Response Emax (α3A179Cβ2 nAChR; [17]): 1.6 ± 0.1 | Mor Modulation Response nH (α3A179Cβ2 nAChR; ACh titration + 10 μM Mor): 1.79 ± 0.75 | Mor Modulation Response nH (α3L158CA179Cβ2 nAChR [9]; ACh titration + 10 μM Mor): 1.70 ± 0.50 | Mor Modulation Response nH (wild type α3β2 nAChR; ACh titration + 10 μM Mor): 1.37 ± 0.80 | Mor potentiation (α3L158CK183Cβ2 nAChR [10]; ACh + 10 μM Mor vs ACh alone): effectively no potentiation | Mor Modulation Response nH (α3L158CK183Cβ2 nAChR [10]; [15]): 0.95 ± 0.16

ACh Response nH (α3L158CG181Cβ2 nAChR [6]; [18]): 0.93 ± 0.23 [5] | ACh Response nH (α3L158Cβ2 nAChR [7]; ACh alone, Hill fit): 0.80 ± 0.11 [6] ^b | ACh Response nH (α3G181Cβ2 nAChR [8]; ACh alone, Hill fit): 1.10 ± 0.11 [5] | ACh Response nH (α3K183Cβ2 nAChR; ACh alone, Hill fit): 2.43 ± 0.78 [9] | ACh Response nH (α3A179Cβ2 nAChR; ACh alone, Hill fit): 0.79 ± 0.08 [8] | ACh Response nH (α3L158CA179Cβ2 nAChR [9]; ACh alone, Hill fit): 1.19 ± 0.20 [7] | ACh Response nH (α3L158CK183Cβ2 nAChR [10]; [18]): 1.11 ± 0.14 [6]
SMILES: CC(=O)OCC[N+](C)(C)C [ACh, acetylcholine]
ACh Response nH (wild type α3β2 nAChR; ACh alone, Hill fit): 0.75 ± 0.07

SMILES: OO [H2O2]
IH2O2/Icontrol (α3G181Cβ2 nAChR [1]): 0.94 ± 0.03 | decrease of ACh-evoked currents (α3L158CK183Cβ2 nAChR [2]; H2O2 + ACh + Mor treatment): 28% | decrease of ACh-evoked currents (α3L158CK183Cβ2 nAChR [2]; H2O2 alone treatment): 13% | decrease of evoked currents (α3L158CA179Cβ2 nAChR [3]; two oxidation conditions (H2O2 alone; H2O2 + ACh + Mor), two challenges (24 μM ACh; 24 μM ACh + 10 μM Mor)): 25–28% | decrease of ACh-evoked current (α3L158CG181Cβ2 nAChR [4]; 4.4 mM H2O2 + 100 μM ACh + 10 μM Mor, 5 min, challenge 100 μM ACh): 26% | decrease of ACh + Mor-evoked current (α3L158CG181Cβ2 nAChR [4]; 4.4 mM H2O2 + 100 μM ACh + 10 μM Mor, 5 min, challenge 100 μM ACh + 10 μM Mor): 26% | effect on ACh-evoked currents (α3L158CG181Cβ2 nAChR [4]; 4.4 mM H2O2 alone, 5 min, challenge 100 μM ACh): no apparent effect | decrease of currents evoked by ACh and Mor (α3L158CG181Cβ2 nAChR [4]; 4.4 mM H2O2 alone, 5 min, challenge 100 μM ACh + 10 μM Mor): 24% | decrease of ACh-evoked current relative to post-reduction value (α3L158CG181Cβ2 nAChR [4]; H2O2 + ACh + Mor oxidation after DTT, challenge 100 μM ACh): 52% | decrease of ACh/Mor-evoked current relative to post-reduction value (α3L158CG181Cβ2 nAChR [4]; H2O2 + ACh + Mor oxidation after DTT, challenge 100 μM ACh + 10 μM Mor): 46% | Ipost-oxidation/Icontrol (α3L158CG181Cβ2 nAChR [4]; H2O2 + ACh + Mor treatment, 5 μM ACh currents (MTS probing experiments)): 0.66 ± 0.05 | ACh/Mor-evoked current, % of the control (α3L158CG181Cβ2 nAChR [4]; challenges every 100 sec, first response): about 60% | ACh/Mor-evoked current, % of the control (α3L158CG181Cβ2 nAChR [4]; five successive challenges in 500 sec): ≤ 80% | IH2O2/Icontrol (α3L158Cβ2 nAChR [5]): 0.78 ± 0.08

SMILES: O=C(O)CCP(CCC(=O)O)CCC(=O)O [TCEP, tris(2-carboxyethyl)phosphine]
ITCEP/Icontrol (α3L158CA179Cβ2 nAChR [3]; ACh): 1.21 ± 0.04 | ITCEP/Icontrol (α3L158CA179Cβ2 nAChR [3]; ACh + Mor): 1.24 ± 0.05

SMILES: CN(C)c1cccc2c(S(=O)(=O)NCCSS(C)(=O)=O)cccc12 [MTS-dansyl, dansylamidoethyl methanesthiosulfonate]
decrease of ACh currents after MTS-dansyl (α3G181Cβ2 nAChR [11]): 21 ± 4% | decrease of ACh currents after MTS-dansyl (α3L158Cβ2 nAChR [12]): 44 ± 2% | decrease of ACh/Mor-evoked currents by MTS (α3L158CG181Cβ2 nAChR [13]; after H2O2 + ACh + Mor oxidation, 5 μM ACh + 10 μM Mor): 8% | decrease of ACh current after MTS (α3L158CG181Cβ2 nAChR [13]; after H2O2 alone treatment, 5 μM ACh): 27% | decrease of ACh + Mor current after MTS (α3L158CG181Cβ2 nAChR [13]; after H2O2 alone treatment, 5 μM ACh + 10 μM Mor): 21% | decrease of ACh/Mor-evoked currents by MTS (α3L158CG181Cβ2 nAChR [13]; after standard oxidation then 200–300 sec wash, 5 μM ACh + 10 μM Mor): 14% | decrease of ACh-evoked current after MTS-dansyl (α3L158CG181Cβ2 nAChR [13]; naive oocytes, 50 μM MTS-dansyl 2 min, 5 μM ACh): 33% | decrease of ACh/Mor-evoked current after MTS-dansyl (α3L158CG181Cβ2 nAChR [13]; naive oocytes, 50 μM MTS-dansyl 2 min, 5 μM ACh + 10 μM Mor): 14%
